Laboratory results as given in US20240158348A1, “HERBICIDAL CYCLIC AMIDES N-SUBSTITUTED WITH A HALOALKYLSULFONYLANILIDE GROUP” (FMC Corporation, priority 2021, published 2024).

How the values were obtained:
Assay type in all cases: in vivo
[1] = tested on: blackgrass (Alopecurus myosuroides); test: Test C preemergence, blackgrass; settings: 0 is no effect, 100 is complete control
Method in brief: (§1)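 Pre: soil sprayed at seeding. Post: seedlings treated at 1–2 leaves (2–10 cm). Vehicle non-phytotoxic solvent mix with surfactant; loam–sand medium; greenhouse; visual injury read at 10 or 12 days, scale 0–100.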

corn (Zea mays) [2] = test: Test C preemergence, corn; settings: 0 is no effect, 100 is complete control
Method in brief: (§2)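 Herbicidal effect was estimated visually on a 0–100 scale 10 or 12 days after spraying. Formulation: non-phytotoxic solvent mixture with surfactant. Timing: directed soil spray after sowing, or postemergence on seedlings bearing one or two leaves.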

[3] = tested on: foxtail, giant (giant foxtail, Setaria faberi); test: Test C preemergence, giant foxtail; settings: 0 is no effect, 100 is complete control
Method in brief: as §1

[4] = tested on: goosegrass (Eleusine indica); test: Test C preemergence, goosegrass; settings: 0 is no effect, 100 is complete control
Method in brief: as §2

kochia (Bassia scoparia) [5] = test: Test C preemergence, kochia; settings: 0 is no effect, 100 is complete control
Method in brief: as §1

[6] = tested on: oat, wild (wild oat, Avena fatua); test: Test C preemergence, wild oat; settings: 0 is no effect, 100 is complete control
Method in brief: as §1

[7] = tested on: pigweed, palmer (palmer amaranth, Amaranthus palmeri); test: Test C preemergence, palmer amaranth; settings: 0 is no effect, 100 is complete control
Method in brief: as §1

[8] = tested on: ragweed (common ragweed, Ambrosia artemisiifolia); test: Test C preemergence, ragweed; settings: 0 is no effect, 100 is complete control
Method in brief: as §2

[9] = tested on: ryegrass, Italian (Italian ryegrass, Lolium multiflorum); test: Test C preemergence, Italian ryegrass; settings: 0 is no effect, 100 is complete control
Method in brief: as §1

soybean (Glycine max) [10] = test: Test C preemergence, soybean; settings: 0 is no effect, 100 is complete control
Method in brief: as §1

[11] = tested on: wheat (Triticum aestivum); test: Test C preemergence, wheat; settings: 0 is no effect, 100 is complete control
[12] = tested on: blackgrass (Alopecurus myosuroides); test: Test C postemergence, blackgrass; settings: 31 g ai/ha Postemergence; visual injury, 0 to 100 scale (0 no effect, 100 complete control)
Method in brief: as §1

corn (Zea mays) [13] = test: Test C postemergence, corn
[14] = tested on: foxtail, giant (giant foxtail, Setaria faberi); test: Test C postemergence, giant foxtail
[15] = tested on: goosegrass (Eleusine indica); test: Test C postemergence, goosegrass
Method in brief: as §1

kochia (Bassia scoparia) [16] = test: Test C postemergence, kochia
Method in brief: as §1

[17] = tested on: oat, wild (wild oat, Avena fatua); test: Test C postemergence, wild oat
[18] = tested on: pigweed, palmer (palmer amaranth, Amaranthus palmeri); test: Test C postemergence, palmer amaranth
Method in brief: as §1

[19] = tested on: ragweed (common ragweed, Ambrosia artemisiifolia); test: Test C postemergence, ragweed
Method in brief: as §1

[20] = tested on: ryegrass, Italian (Italian ryegrass, Lolium multiflorum); test: Test C postemergence, Italian ryegrass
Method in brief: as §1

soybean (Glycine max) [21] = test: Test C postemergence, soybean
[22] = tested on: wheat (Triticum aestivum); test: Test C postemergence, wheat
Method in brief: as §1

[23] = tested on: galium (catchweed bedstraw, Galium aparine); test: Test C postemergence, galium
[24] = tested on: horseweed (Erigeron canadensis); test: Test C postemergence, horseweed
Method in brief: as §1

[25] = tested on: barnyardgrass (Echinochloa crusgalli); test: Test D flooded paddy test, barnyardgrass; set-up: key: 0 = no effect, 100 = complete control; settings: 250 g ai/ha, Flood; applied to paddy water at 2-leaf stage; visual rating after 13 days; scale 0 (no effect) to 100 (complete control)
Method in brief: (§3)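 Plants were grown to the 2-leaf stage, then pots were flooded to 3 cm above soil and compounds applied directly into the paddy water, with that depth held throughout. After 13 days in a greenhouse, injury was visually rated against untreated controls on a 0–100 scale (0 no effect, 100 complete control).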

[26] = tested on: ducksalad (Heteranthera limosa); test: Test D flooded paddy test, ducksalad; set-up: key: 0 = no effect, 100 = complete control; settings: 250 g ai/ha, Flood; applied to paddy water at 2-leaf stage; visual rating after 13 days; scale 0 (no effect) to 100 (complete control)
Method in brief: as §3

rice (Oryza sativa) = test: Test D flooded paddy test, rice; set-up: key: 0 = no effect, 100 = complete control; settings: 250 g ai/ha, Flood; applied to paddy water at 2-leaf stage; visual rating after 13 days; scale 0 (no effect) to 100 (complete control)
Method in brief: as §3

[27] = tested on: sedge, umbrella (small-flower umbrella sedge, Cyperus difformis); test: Test D flooded paddy test, umbrella sedge; set-up: key: 0 = no effect, 100 = complete control; settings: 250 g ai/ha, Flood; applied to paddy water at 2-leaf stage; visual rating after 13 days; scale 0 (no effect) to 100 (complete control)
Method in brief: as §3

[28] = tested on: blackgrass (Alopecurus myosuroides); test: Test C postemergence, blackgrass; settings: 125 g ai/ha Postemergence; 0 is no effect, 100 is complete control
[29] = 31 g ai/ha Postemergence, visual injury, 0 to 100 scale (0 no effect, 100 complete control)
[30] = 125 g ai/ha Postemergence, 0 is no effect, 100 is complete control

**Q.** Which “Plant response rating (0 to 100 scale), Blackgrass” value ([1]; 31 g ai/ha Preemergence) does the source give for `Cc1c(N2CCC(OC3CC3)C2=O)cc(N(COC(=O)C(C)(C)C)S(=O)(=O)C(F)(F)F)c(C)c1F` (stereo not shown) [Compound 23] here?
**A.** 0

**Q.** What about the “Plant response rating (0 to 100 scale), Blackgrass” value ([1]; 125 g ai/ha Preemergence) of the same compound?
**A.** 10

**Q.** And the “Plant response rating (0 to 100 scale), Corn” value (corn (Zea mays) [2]; 31 g ai/ha Preemergence)?
**A.** 10

**Q.** And the “Plant response rating (0 to 100 scale), Corn” value (corn (Zea mays) [2]; 125 g ai/ha Preemergence)?
**A.** 20

**Q.** And the “Plant response rating (0 to 100 scale), Foxtail, Giant” value ([3]; 31 g ai/ha Preemergence)?
**A.** 20

**Q.** And the “Plant response rating (0 to 100 scale), Foxtail, Giant” value ([3]; 125 g ai/ha Preemergence)?
**A.** 90

**Q.** What about the “Plant response rating (0 to 100 scale), Goosegrass” value ([4]; 31 g ai/ha Preemergence) of the same compound?
**A.** 70

**Q.** What about the “Plant response rating (0 to 100 scale), Goosegrass” value ([4]; 125 g ai/ha Preemergence) of the same compound?
**A.** 100

**Q.** What about the “Plant response rating (0 to 100 scale), Kochia” value (kochia (Bassia scoparia) [5]; 31 g ai/ha Preemergence) of the same compound?
**A.** 20

**Q.** And the “Plant response rating (0 to 100 scale), Kochia” value (kochia (Bassia scoparia) [5]; 125 g ai/ha Preemergence)?
**A.** 90

**Q.** What about the “Plant response rating (0 to 100 scale), Oat, Wild” value ([6]; 31 g ai/ha Preemergence) of the same compound?
**A.** 40

**Q.** What about the “Plant response rating (0 to 100 scale), Oat, Wild” value ([6]; 125 g ai/ha Preemergence) of the same compound?
**A.** 90

**Q.** And the “Plant response rating (0 to 100 scale), Pigweed, Palmer” value ([7]; 31 g ai/ha Preemergence)?
**A.** 30

**Q.** What about the “Plant response rating (0 to 100 scale), Pigweed, Palmer” value ([7]; 125 g ai/ha Preemergence) of the same compound?
**A.** 100

**Q.** What about the “Plant response rating (0 to 100 scale), Ragweed” value ([8]; 31 g ai/ha Preemergence) of the same compound?
**A.** 30

**Q.** And the “Plant response rating (0 to 100 scale), Ragweed” value ([8]; 125 g ai/ha Preemergence)?
**A.** 90

**Q.** What about the “Plant response rating (0 to 100 scale), Ryegrass, Italian” value ([9]; 31 g ai/ha Preemergence) of the same compound?
**A.** 30

**Q.** And the “Plant response rating (0 to 100 scale), Ryegrass, Italian” value ([9]; 125 g ai/ha Preemergence)?
**A.** 100

**Q.** And the “Plant response rating (0 to 100 scale), Soybean” value (soybean (Glycine max) [10]; 31 g ai/ha Preemergence)?
**A.** 30

**Q.** What about the “Plant response rating (0 to 100 scale), Soybean” value (soybean (Glycine max) [10]; 125 g ai/ha Preemergence) of the same compound?
**A.** 40

**Q.** And the “Plant response rating (0 to 100 scale), Wheat” value ([11]; 31 g ai/ha Preemergence)?
**A.** 10

**Q.** And the “Plant response rating (0 to 100 scale), Wheat” value ([11]; 125 g ai/ha Preemergence)?
**A.** 30

**Q.** What about the “Blackgrass plant response rating” value [12] of the same compound?
**A.** 10

**Q.** What about the “Corn plant response rating” value (corn (Zea mays) [13]; [29]) of the same compound?
**A.** 30

**Q.** And the “Plant response rating (0 to 100 scale), Corn” value (corn (Zea mays) [13]; [30])?
**A.** 90

**Q.** And the “Foxtail, Giant plant response rating” value [14, 29]?
**A.** 0

**Q.** What about the “Plant response rating (0 to 100 scale), Foxtail, Giant” value [14, 30] of the same compound?
**A.** 80

**Q.** What about the “Goosegrass plant response rating” value [15, 29] of the same compound?
**A.** 30

**Q.** What about the “Plant response rating (0 to 100 scale), Goosegrass” value [15, 30] of the same compound?
**A.** 90

**Q.** What about the “Kochia plant response rating” value (kochia (Bassia scoparia) [16]; [29]) of the same compound?
**A.** 30

**Q.** And the “Plant response rating (0 to 100 scale), Kochia” value (kochia (Bassia scoparia) [16]; [30])?
**A.** 80

**Q.** What about the “Oat, Wild plant response rating” value [17, 29] of the same compound?
**A.** 20

**Q.** And the “Plant response rating (0 to 100 scale), Oat, Wild” value [17, 30]?
**A.** 50

**Q.** And the “Pigweed, Palmer plant response rating” value [18, 29]?
**A.** 50

**Q.** And the “Plant response rating (0 to 100 scale), Pigweed, Palmer” value [18, 30]?
**A.** 70

**Q.** What about the “Ragweed plant response rating” value [19, 29] of the same compound?
**A.** 90

**Q.** And the “Plant response rating (0 to 100 scale), Ragweed” value [19, 30]?
**A.** 90

**Q.** What about the “Ryegrass, Italian plant response rating” value [20, 29] of the same compound?
**A.** 50

**Q.** And the “Plant response rating (0 to 100 scale), Ryegrass, Italian” value [20, 30]?
**A.** 100

**Q.** What about the “Soybean plant response rating” value (soybean (Glycine max) [21]; [29]) of the same compound?
**A.** 60

**Q.** And the “Plant response rating (0 to 100 scale), Soybean” value (soybean (Glycine max) [21]; [30])?
**A.** 60

**Q.** What about the “Wheat plant response rating” value [22, 29] of the same compound?
**A.** 10

**Q.** What about the “Plant response rating (0 to 100 scale), Wheat” value [22, 30] of the same compound?
**A.** 60

**Q.** What about the “Galium plant response rating” value [23, 29] of the same compound?
**A.** 90

**Q.** What about the “Plant response rating (0 to 100 scale), Galium” value [23, 30] of the same compound?
**A.** 100

**Q.** And the “Horseweed plant response rating” value [24, 29]?
**A.** 80

**Q.** And the “Plant response rating (0 to 100 scale), Horseweed” value [24, 30]?
**A.** 90

**Q.** What about the “Plant response rating, Barnyardgrass” value [25] of the same compound?
**A.** 95

**Q.** What about the “Plant response rating, Ducksalad” value [26] of the same compound?
**A.** 80

**Q.** And the “Plant response rating, Rice” value (rice (Oryza sativa))?
**A.** 40

**Q.** What about the “Plant response rating, Sedge, Umbrella” value [27] of the same compound?
**A.** 95

**Q.** And the “Plant response rating (0 to 100 scale), Blackgrass” value [28]?
**A.** 50
